According to patent US20140088187A1, “ANDROGEN RECEPTOR INHIBITORS AND METHODS OF USE THEREOF” (BETH ISRAEL DEACONESS MEDICAL CENTER, priority 2010, published 2014):

What was measured:
AR WT = target: T1, AR WT (Homo sapiens, UniProt P10275); test: Mifepristone-stimulated VP16-NCoRc recruitment reporter assay in COS7 cells, AR WT; format: cell-based
T1 construct: The AR WT construct expresses full-length human AR under cmv promoter control; expressed in transfected cells; host or cells: COS7
T1 sequence (P10275 1-920): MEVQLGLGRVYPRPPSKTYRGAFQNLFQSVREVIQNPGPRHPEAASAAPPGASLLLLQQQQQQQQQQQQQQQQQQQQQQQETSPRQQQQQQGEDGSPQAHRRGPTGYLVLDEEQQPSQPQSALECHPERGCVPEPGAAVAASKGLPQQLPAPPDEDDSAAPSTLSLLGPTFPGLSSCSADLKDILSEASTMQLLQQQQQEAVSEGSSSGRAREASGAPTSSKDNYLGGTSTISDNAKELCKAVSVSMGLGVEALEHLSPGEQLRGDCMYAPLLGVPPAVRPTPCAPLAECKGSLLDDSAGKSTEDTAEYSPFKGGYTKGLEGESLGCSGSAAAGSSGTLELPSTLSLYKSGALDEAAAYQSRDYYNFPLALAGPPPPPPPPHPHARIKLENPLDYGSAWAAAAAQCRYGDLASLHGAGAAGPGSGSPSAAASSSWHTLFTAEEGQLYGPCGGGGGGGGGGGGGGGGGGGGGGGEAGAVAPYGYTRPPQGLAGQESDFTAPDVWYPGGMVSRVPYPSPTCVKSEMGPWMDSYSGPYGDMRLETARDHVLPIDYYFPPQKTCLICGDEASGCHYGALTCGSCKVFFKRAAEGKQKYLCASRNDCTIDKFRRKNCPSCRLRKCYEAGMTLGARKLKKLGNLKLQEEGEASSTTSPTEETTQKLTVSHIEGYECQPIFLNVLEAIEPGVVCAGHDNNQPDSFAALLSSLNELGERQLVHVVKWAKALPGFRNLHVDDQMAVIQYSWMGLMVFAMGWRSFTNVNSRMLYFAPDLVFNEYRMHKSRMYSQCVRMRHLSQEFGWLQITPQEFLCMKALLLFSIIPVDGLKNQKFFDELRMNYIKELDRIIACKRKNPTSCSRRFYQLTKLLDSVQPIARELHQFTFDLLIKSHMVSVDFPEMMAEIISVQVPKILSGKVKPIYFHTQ
From the text: The ERα antagonist fulvestrant (Faslodex) represents a novel class of estrogen receptor downregulators that appear to mediate ERα degradation by specifically repositioning helix 12. To assess the role of helix 12 in chemotype A-mediated AR degradation, we first determined if helix 12 is required for A89 binding. As this helix is required for AR agonist activity, we could not directly measure competitive antagonist activity on a truncated AR lacking helix 12.

AR ΔH12 = target: T2, AR ΔH12 (Homo sapiens, UniProt P10275); test: AR expression levels in transiently transfected COS7 cells, AR ΔH12; format: cell-based; conditions: 24 hours
T2 construct: expressed in transfected cells; host or cells: COS7
T2 sequence (P10275 1-886 limits assumed): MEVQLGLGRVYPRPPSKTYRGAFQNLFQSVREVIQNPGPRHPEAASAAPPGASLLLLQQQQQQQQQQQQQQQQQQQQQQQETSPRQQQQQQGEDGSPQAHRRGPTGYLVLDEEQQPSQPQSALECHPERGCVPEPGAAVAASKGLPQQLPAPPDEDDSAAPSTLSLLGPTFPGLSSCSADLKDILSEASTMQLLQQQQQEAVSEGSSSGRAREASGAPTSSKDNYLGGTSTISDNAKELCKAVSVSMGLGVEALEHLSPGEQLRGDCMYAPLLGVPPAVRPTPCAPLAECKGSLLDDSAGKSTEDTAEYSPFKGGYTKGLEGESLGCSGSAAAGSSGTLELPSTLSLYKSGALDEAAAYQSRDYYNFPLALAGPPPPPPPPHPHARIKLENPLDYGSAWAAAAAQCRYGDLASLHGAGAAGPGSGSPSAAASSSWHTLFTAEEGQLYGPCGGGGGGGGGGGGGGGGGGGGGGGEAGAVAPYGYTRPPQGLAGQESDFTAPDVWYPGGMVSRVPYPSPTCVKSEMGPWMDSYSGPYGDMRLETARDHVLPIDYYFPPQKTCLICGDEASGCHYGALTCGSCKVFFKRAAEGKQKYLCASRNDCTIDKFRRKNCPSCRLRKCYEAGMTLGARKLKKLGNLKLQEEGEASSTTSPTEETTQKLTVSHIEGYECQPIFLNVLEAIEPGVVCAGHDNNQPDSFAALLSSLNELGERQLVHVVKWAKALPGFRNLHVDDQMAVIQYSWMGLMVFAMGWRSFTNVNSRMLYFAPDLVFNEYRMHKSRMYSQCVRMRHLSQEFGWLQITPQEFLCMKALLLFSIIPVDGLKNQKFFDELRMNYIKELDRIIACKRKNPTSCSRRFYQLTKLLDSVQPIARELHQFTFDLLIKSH

- mifepristone-mediated VP16-NCoRc recruitment (AR WT; A89 50 μM with Mif 100 nM): suppressed
- VP16-NCoRc recruitment (interaction with AR) (AR WT; Mif 100 nM, A89 50 μM, 24 hours): did not stimulate
- AR ΔH12 protein levels (AR ΔH12): not clearly decreased
Compound: CCOc1cc(F)c(S(=O)(=O)NCc2ccc3c(c2)OCO3)cc1F [Compound A89, N-(1,3-benzodioxol-5-ylmethyl)-4-ethoxy-2,5-difluorobenzenesulfonamide]
